In ChEMBL document CHEMBL1121784, “Quantitative structure-activity relationships by distance geometry: thyroxine binding site” (J Med Chem, 1981) one finds Delta G data, which are given here for 26 compounds.

The target of the assay is Transthyretin (Homo sapiens) (UniProt P02766). Put plainly: Binding affinity against prealbumin.

`CCc1cc(C)c(Oc2c(I)c(C)c(CC(N)C(=O)O)c(C)c2I)c(C)c1C(C)(C)C` (stereo unspecified) came in with a Delta G of -8 kcal/M. The value for `CCc1cc(C)c(Oc2c(I)c(C)c(CC(N)C(=O)O)c(C)c2I)c(C)c1C(C)C` (stereo unspecified) was -7.8 kcal/M; that for `CCc1c(I)c(C)c(Oc2c(I)c(C)c(CC(N)C(=O)O)c(C)c2I)c(C)c1I` (stereo in doubt; 2) was -10.7 kcal/M; that for `CCc1c(C)c(C)c(Oc2c(I)c(C)c(CC(N)C(=O)O)c(C)c2I)c(C)c1C` (stereo unspecified) was -6.6 kcal/M. `CCc1c(I)c(C)c(Oc2c(I)c(C)c(CCCC(=O)O)c(C)c2I)c(C)c1I` yielded a Delta G of -11.3 kcal/M. Consider `CCc1c(I)c(C)c(Oc2c(I)c(C)c(CC(=O)O)c(C)c2I)c(C)c1I`, for which the Delta G is -11.9 kcal/M. In the case of `CCc1cc(C)c(Oc2c(I)c(C)c(CC(=O)O)c(C)c2I)c(C)c1I`, the Delta G is -9.7 kcal/M.

`CCc1cc(C)c(Oc2c(I)c(C)c(CC(N)C(=O)O)c(C)c2I)c(C)c1I` (stereo in doubt; 1) showed a Delta G of -9.2 kcal/M. Compound `CCc1cc(C)c(Oc2cc(C)c(CC(N)C(=O)O)c(C)c2I)c(C)c1` (stereo unspecified) showed a Delta G of -5.2 kcal/M. For `CCc1c(I)c(C)c(Oc2c(I)c(C)c(CCN)c(C)c2I)c(C)c1I` the value was -9.7 kcal/M; for `CCCc1c(CC)cc(C)c(Oc2c(I)c(C)c(CC(N)C(=O)O)c(C)c2I)c1C` (stereo unspecified), -7.6 kcal/M; for `CCc1cc(C)c(Oc2c(I)c(C)c(CC(N)C(=O)O)c(C)c2I)c(C)c1Cl` (stereo unspecified), -7.7 kcal/M. For `CCc1cc(C)c(Oc2c(I)c(C)c(CC(N)C(=O)O)c(C)c2I)c(C)c1I` (stereo in doubt; 21) the value was -7 kcal/M. For `CCc1cc(C)c(Oc2c(I)c(C)c(CC(N)C(=O)O)c(C)c2I)c(C)c1C(C)CC` (stereo unspecified) the value was -9 kcal/M. In turn, `CCc1c(I)c(C)c(Oc2c(I)c(C)c(CC(N)C(=O)O)c(C)c2I)c(C)c1I` (stereo in doubt; 26) returned a Delta G of -8.7 kcal/M.

`CCc1cc(C)c(Oc2cc(C)c(CC(N)C(=O)O)c(C)c2I)c(C)c1I` (stereo unspecified) came in with a Delta G of -7.6 kcal/M. As for `CCc1cc(C)c(Oc2c(I)c(C)c(CC(N)C(=O)O)c(C)c2I)c(C)c1Br` (stereo unspecified), the Delta G was -8.2 kcal/M. The value for `CCc1cc(C)c(Oc2c(I)c(C)c(CC(N)C(=O)O)c(C)c2I)c(C)c1` (stereo unspecified) was -7.1 kcal/M. The value for `CCc1cc(C)c(Oc2c(I)c(C)c(CC(N)C(=O)O)c(C)c2I)c(C)c1C` (stereo unspecified) was -7.4 kcal/M. The compound `CCc1c(I)c(C)c(Oc2cc(C)c(CC(N)C(=O)O)c(C)c2I)c(C)c1I` (stereo unspecified) gave a Delta G of -10 kcal/M. For `CCc1cc(C)c(Oc2c(C)c(C)c(CC(N)C(=O)O)c(C)c2C)c(C)c1I` (stereo unspecified), the Delta G was -7.8 kcal/M.

For the compound `CCc1c(I)c(C)c(Oc2c(I)c(C)c(CCC(=O)O)c(C)c2I)c(C)c1I`, the Delta G is -11.4 kcal/M. Compound `CCc1c(I)c(C)c(Oc2c(I)c(C)c(C(=O)O)c(C)c2I)c(C)c1I` had a Delta G of -11.1 kcal/M. Compound `CCc1c(Br)c(C)c(Oc2c(I)c(C)c(CC(N)C(=O)O)c(C)c2I)c(C)c1Br` (stereo unspecified) displayed a Delta G of -9.2 kcal/M. For `CCc1c(I)c(C)c(Oc2c(C)c(C)c(CC(N)C(=O)O)c(C)c2C)c(C)c1I` (stereo unspecified) the value was -7.7 kcal/M. With `CCc1cc(C)c(Oc2c(I)c(C)c(CC(N)C(=O)O)c(C)c2I)c(C)c1CC(C)C` (stereo unspecified), the Delta G was -8.4 kcal/M.
